According to the supplement of paper PMC9663587:

Legend:
THZ1 [1] = compound: T1, CN(C)C/C=C/C(=O)Nc1ccc(C(=O)Nc2cccc(Nc3ncc(Cl)c(-c4c[nH]c5ccccc45)n3)c2)cc1 [THZ1]; assay: GR value, 72 h; higher = faster growth (1 = untreated, <0 = killing);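 further: breast cancer and non-malignant breast epithelial lines, nine half-log doses, viable cells counted by Hoechst and LIVE/DEAD dye imaging versus time-zero plates and DMSO controls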
Neratinib/HKI272 [2] = compound: T2, CCOc1cc2ncc(C#N)c(Nc3ccc(OCc4ccccn4)c(Cl)c3)c2cc1NC(=O)/C=C/CN(C)C [Neratinib/HKI272]; assay: as above
THZ531 = compound: CN(C)C/C=C/C(=O)Nc1ccc(C(=O)N2CCC[C@@H](Nc3ncc(Cl)c(-c4c[nH]c5ccccc45)n3)C2)cc1 [THZ531]; assay: increase in dead-cell fraction, 72 h; higher = more death;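 further: breast cancer cell lines in 384-well plates, stained with Hoechst plus LIVE/DEAD far red dye and imaged, cells above an LDR intensity threshold counted dead, Hoechst-negative corpses included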
LEE011/Ribociclib = compound: CN(C)C(=O)c1cc2cnc(Nc3ccc(N4CCNCC4)cn3)nc2n1C1CCCC1 [LEE011/Ribociclib]; assay: as above
THZ1 [3] = compound: T1, THZ1; assay: as above
[4] = compound: CC(=O)c1c(C)c2cnc(Nc3ccc(N4CCNCC4)cn3)nc2n(C2CCCC2)c1=O; assay: as above
Neratinib/HKI272 [5] = compound: T2, Neratinib/HKI272; assay: as above
[6] = compound: CCN1CCN(Cc2ccc(Nc3ncc(F)c(-c4cc(F)c5nc(C)n(C(C)C)c5c4)n3)nc2)CC1; assay: as above
[7] = compound: CCc1cnn2c(NCc3ccc[n+]([O-])c3)cc(N3CCCC[C@H]3CCO)nc12; assay: as above
YKL-5-124 = compound: C=CC(=O)Nc1ccc(C(=O)Nc2[nH]nc3c2CN(C(=O)N[C@H](CN(C)C)c2ccccc2)C3(C)C)cc1 [YKL-5-124]; assay: as above
Flavopiridol = compound: CN1CC[C@H](c2c(O)cc(O)c3c(=O)cc(-c4ccccc4Cl)oc23)[C@H](O)C1 [Flavopiridol]; assay: as above
BSJ-03-123 = compound: CC(=O)c1c(C)c2cnc(Nc3ccc(N4CCN(CCOCCOCCOCCNC(=O)COc5cccc6c5C(=O)N(C5CCC(=O)NC5=O)C6=O)CC4)cn3)nc2n(C2CCCC2)c1=O [BSJ-03-123]; assay: as above

MCF12A
GR value (THZ1 [1]; 0.0001 µM): 0.997 GR
GR value (THZ1 [1]; 0.0003162 µM): 0.989 GR
GR value (THZ1 [1]; 0.001 µM): 1 GR
GR value (THZ1 [1]; 0.003162 µM): 0.958 GR
GR value (THZ1 [1]; 0.01 µM): 0.984 GR
GR value (THZ1 [1]; 0.03162 µM): 0.851 GR
GR value (THZ1 [1]; 0.1 µM): 0.569 GR
GR value (THZ1 [1]; 0.3162 µM): 0.338 GR
GR value (THZ1 [1]; 1 µM): -0.312 GR
GR value (Neratinib/HKI272 [2]; 0.0003162 µM): 1.07 GR
GR value (Neratinib/HKI272 [2]; 0.001 µM): 0.998 GR
GR value (Neratinib/HKI272 [2]; 0.003162 µM): 1.01 GR
GR value (Neratinib/HKI272 [2]; 0.01 µM): 1.04 GR
GR value (Neratinib/HKI272 [2]; 0.03162 µM): 1.03 GR
GR value (Neratinib/HKI272 [2]; 0.1 µM): 0.893 GR
GR value (Neratinib/HKI272 [2]; 0.3162 µM): 0.546 GR
GR value (Neratinib/HKI272 [2]; 1 µM): 0.336 GR
GR value (Neratinib/HKI272 [2]; 3.162 µM): 0.0907 GR
increase in dead-cell fraction (THZ531; 0.0001 µM): 0.0108
increase in dead-cell fraction (THZ531; 0.0003162 µM): 0.0023
increase in dead-cell fraction (THZ531; 0.001 µM): -0.0009
increase in dead-cell fraction (THZ531; 0.003162 µM): 0.0027
increase in dead-cell fraction (THZ531; 0.01 µM): 0.0039
increase in dead-cell fraction (THZ531; 0.03162 µM): 0.0089
increase in dead-cell fraction (THZ531; 0.1 µM): 0.0009
increase in dead-cell fraction (THZ531; 0.3162 µM): 0.0073
increase in dead-cell fraction (THZ531; 1 µM): 0.332
increase in dead-cell fraction (LEE011/Ribociclib; 0.001 µM): 0.0031
increase in dead-cell fraction (LEE011/Ribociclib; 0.003162 µM): -0.0078
increase in dead-cell fraction (LEE011/Ribociclib; 0.01 µM): 0.0001
increase in dead-cell fraction (LEE011/Ribociclib; 0.03162 µM): 0.0156
increase in dead-cell fraction (LEE011/Ribociclib; 0.1 µM): 0.002
increase in dead-cell fraction (LEE011/Ribociclib; 0.3162 µM): 0.0029
increase in dead-cell fraction (LEE011/Ribociclib; 1 µM): 0.0076
increase in dead-cell fraction (LEE011/Ribociclib; 3.162 µM): 0.0018
increase in dead-cell fraction (LEE011/Ribociclib; 10 µM): 0.0126
increase in dead-cell fraction (THZ1 [3]; 0.0001 µM): 0
increase in dead-cell fraction (THZ1 [3]; 0.0003162 µM): -0.007
increase in dead-cell fraction (THZ1 [3]; 0.001 µM): 0.0031
increase in dead-cell fraction (THZ1 [3]; 0.003162 µM): 0.0056
increase in dead-cell fraction (THZ1 [3]; 0.01 µM): 0.0015
increase in dead-cell fraction (THZ1 [3]; 0.03162 µM): 0.0071
increase in dead-cell fraction (THZ1 [3]; 0.1 µM): 0.0475
increase in dead-cell fraction (THZ1 [3]; 0.3162 µM): 0.127
increase in dead-cell fraction (THZ1 [3]; 1 µM): 0.697
increase in dead-cell fraction ([4]; 0.0003162 µM): -0.0052
increase in dead-cell fraction ([4]; 0.001 µM): -0.0036
increase in dead-cell fraction ([4]; 0.003162 µM): -0.0043
increase in dead-cell fraction ([4]; 0.01 µM): -0.0067
increase in dead-cell fraction ([4]; 0.03162 µM): -0.005
increase in dead-cell fraction ([4]; 0.1 µM): -0.003
increase in dead-cell fraction ([4]; 0.3162 µM): 0.0031
increase in dead-cell fraction ([4]; 1 µM): 0.006
increase in dead-cell fraction ([4]; 3.162 µM): 0.0205
increase in dead-cell fraction (Neratinib/HKI272 [5]; 0.0003162 µM): -0.002
increase in dead-cell fraction (Neratinib/HKI272 [5]; 0.001 µM): 0.0045
increase in dead-cell fraction (Neratinib/HKI272 [5]; 0.003162 µM): 0.0065
increase in dead-cell fraction (Neratinib/HKI272 [5]; 0.01 µM): -0.0012
increase in dead-cell fraction (Neratinib/HKI272 [5]; 0.03162 µM): -0.0009
increase in dead-cell fraction (Neratinib/HKI272 [5]; 0.1 µM): 0.0012
increase in dead-cell fraction (Neratinib/HKI272 [5]; 0.3162 µM): 0.029
increase in dead-cell fraction (Neratinib/HKI272 [5]; 1 µM): 0.0776
increase in dead-cell fraction (Neratinib/HKI272 [5]; 3.162 µM): 0.146
increase in dead-cell fraction ([6]; 0.001 µM): -0.003
increase in dead-cell fraction ([6]; 0.003162 µM): 0.0003
increase in dead-cell fraction ([6]; 0.01 µM): -0.0021
increase in dead-cell fraction ([6]; 0.03162 µM): 0.0015
increase in dead-cell fraction ([6]; 0.1 µM): 0.006
increase in dead-cell fraction ([6]; 0.3162 µM): 0.0113
increase in dead-cell fraction ([6]; 1 µM): 0.0148
increase in dead-cell fraction ([6]; 3.162 µM): 0.0231
increase in dead-cell fraction ([6]; 10 µM): 0.0492
increase in dead-cell fraction ([7]; 0.0001 µM): -0.0058
increase in dead-cell fraction ([7]; 0.0003162 µM): 0.0036
increase in dead-cell fraction ([7]; 0.001 µM): 0.0056
increase in dead-cell fraction ([7]; 0.003162 µM): -0.0029
increase in dead-cell fraction ([7]; 0.01 µM): 0.0006
increase in dead-cell fraction ([7]; 0.03162 µM): 0.0291
increase in dead-cell fraction ([7]; 0.1 µM): 0.541
increase in dead-cell fraction ([7]; 1 µM): 0.517
increase in dead-cell fraction (YKL-5-124; 0.001 µM): 0.0376
increase in dead-cell fraction (YKL-5-124; 0.003162 µM): 0.0894
increase in dead-cell fraction (YKL-5-124; 0.01 µM): 0.136
increase in dead-cell fraction (YKL-5-124; 0.03162 µM): 0.155
increase in dead-cell fraction (YKL-5-124; 0.1 µM): 0.184
increase in dead-cell fraction (YKL-5-124; 0.3162 µM): 0.177
increase in dead-cell fraction (YKL-5-124; 1 µM): 0.165
increase in dead-cell fraction (YKL-5-124; 3.162 µM): 0.164
increase in dead-cell fraction (YKL-5-124; 10 µM): 0.252
increase in dead-cell fraction (Flavopiridol; 0.0001 µM): 0.0046
increase in dead-cell fraction (Flavopiridol; 0.0003162 µM): 0.0087
increase in dead-cell fraction (Flavopiridol; 0.001 µM): 0.0086
increase in dead-cell fraction (Flavopiridol; 0.003162 µM): 0.0003
increase in dead-cell fraction (Flavopiridol; 0.01 µM): -0.0016
increase in dead-cell fraction (Flavopiridol; 0.03162 µM): 0.0044
increase in dead-cell fraction (Flavopiridol; 0.1 µM): 0.0096
increase in dead-cell fraction (Flavopiridol; 0.3162 µM): 0.0302
increase in dead-cell fraction (Flavopiridol; 1 µM): 0.479
increase in dead-cell fraction (BSJ-03-123; 0.001 µM): -0.0046
increase in dead-cell fraction (BSJ-03-123; 0.003162 µM): 0.0003
increase in dead-cell fraction (BSJ-03-123; 0.01 µM): 0.0014
increase in dead-cell fraction (BSJ-03-123; 0.03162 µM): -0.0002
increase in dead-cell fraction (BSJ-03-123; 0.1 µM): 0.0054
increase in dead-cell fraction (BSJ-03-123; 0.3162 µM): 0.0008
increase in dead-cell fraction (BSJ-03-123; 1 µM): 0.0162
increase in dead-cell fraction (BSJ-03-123; 3.162 µM): 0.0226
increase in dead-cell fraction (BSJ-03-123; 10 µM): 0.151
